From paper PMC8138579, “Screening of Anti-Lipase Components of Artemisia argyi Leaves Based on Spectrum-Effect Relationships and HPLC-MS/MS” (Frontiers in Pharmacology, 2021)

target: T1, Porcine pancreatic lipase (type II) (Sus scrofa, UniProt P00591); experiment: fluorometric lipase assay, 4-methylumbelliferone release; format: biochemical
T1 construct: gene PNLIP; native commercial porcine pancreas preparation (Sigma-Aldrich, type II), no added colipase stated; human 1LPA used only for docking
T1 sequence (P00591 1-450): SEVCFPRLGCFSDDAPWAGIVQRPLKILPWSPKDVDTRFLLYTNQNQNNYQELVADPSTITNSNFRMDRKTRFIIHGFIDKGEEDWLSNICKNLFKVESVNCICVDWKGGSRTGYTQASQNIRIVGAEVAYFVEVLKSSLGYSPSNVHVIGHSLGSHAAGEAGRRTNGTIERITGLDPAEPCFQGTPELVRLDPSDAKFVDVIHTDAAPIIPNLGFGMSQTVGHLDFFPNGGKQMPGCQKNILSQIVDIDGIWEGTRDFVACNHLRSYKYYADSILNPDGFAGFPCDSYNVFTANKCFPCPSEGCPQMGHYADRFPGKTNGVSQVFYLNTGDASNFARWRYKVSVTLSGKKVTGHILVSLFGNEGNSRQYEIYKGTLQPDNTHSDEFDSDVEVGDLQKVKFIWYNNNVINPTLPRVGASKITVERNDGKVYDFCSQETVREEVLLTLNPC
Source text: fluorometric lipase assay, 4-methylumbelliferone release on Porcine pancreatic lipase (type II) | IC50 values of neochlorogenic acid, chlorogenic acid, isochlorogenic acid B and isochlorogenic acid A

Row | IC50 | Compound
1 | 157 µM | O=C(/C=C/c1ccc(O)c(O)c1)O[C@@H]1C[C@](O)(C(=O)O)C[C@@H](OC(=O)/C=C/c2ccc(O)c(O)c2)[C@H]1O [P8, isochlorogenic acid A]
2 | 322 µM | O=C(/C=C/c1ccc(O)c(O)c1)O[C@@H]1C[C@](O)(C(=O)O)C[C@@H](O)[C@H]1O [P3, chlorogenic acid]
3 | 429 µM | O=C(/C=C/c1ccc(O)c(O)c1)O[C@@H]1C[C@@](O)(C(=O)O)C[C@@H](O)[C@@H]1O [P1, neochlorogenic acid]
4 | 234 µM | O=C(/C=C/c1ccc(O)c(O)c1)O[C@H]1[C@H](O)C[C@](O)(C(=O)O)C[C@H]1OC(=O)/C=C/c1ccc(O)c(O)c1 [P7, isochlorogenic acid B]
